The values that follow come from patent US5840895A, “Triazole intermediates for tricyclic benzazepine and benzothiazepine derivatives” (Meiji Seika Kabushiki Kaisha, priority 1993, dated 1998).

Where two headings read alike, the source gives them in different places.

Experiment [1] concerns histamine releasing reaction. In words: Test of suppressing histamine releasing reaction (abdominal cavity cells of rats sensitised with anti-DNP-As serum, stimulated with DNP-As). Type of experiment: cell-based, rat (male Wister). As to conditions: Rattus norvegicus; cells 10^5 cell/ml stimulated with 1 μg/ml DNP-As; test compounds 10^-5 -10^-10 M; read-out: IC50 (suppression of histamine releasing reaction). The method, then:
Test of suppressing histamine releasing reaction
Rat anti-dinitrophenylated ascaris protein (referred to hereinafter as DNP-As) serum was prepared according to the method described by Tada, T. and Okumura, K., J. Immun., 106 (4), 1971. Briefly, 1×10^10 of inviable pertussis and 1 mg of DNP-As were administered subcutaneously to the paw of female Brown Norway rats having a body weight of 200 g. After five days, 0.5 mg of DNP-As was further administered intramuscularly to the rear of the animals. Blood samples were taken after three days of the administration to prepare anti-serum.
A 1 ml portion of the serum diluted four times with physiological saline was administered intraperitoneally to male Wister rats. After two days, abdominal cavity was rinsed with phosphate buffer to recover the cells within the abdominal cavity. After the cell concentration was adjusted to 10^5 cell/ml, the cells were stimulated with 1 μg/ml of DNP-As. The amount of histamine released into the supernatant was measured according to the method described by Shore, P. A., Burkhalter, A. H. and Chon, V. H. Jr., J. Pharm. Exp. Ther., 127, 182-186 (1959).
A dose for suppressing 50% of the histamine releasing reaction, i.e., IC50 value, was calculated from the amounts of histamine released in the group treated with the test compounds in the molar concentrations (M) of 10^-5 -10^-10 and in the control group. The IC50 value as the suppressing effect of the drugs is shown in Table 6 with the IC50 value of sodium chromoglycic acid selected as the control compound.

Experiment [2] has as its system allergic edema reaction at paw. In words: Test for suppressing immediate and delayed allergic reaction (allergic edema reaction at paw, DNP-OA). Type of experiment: in vivo, rat (male Wister). As to conditions: Rattus norvegicus; for inhibition in vivo at 10 mg/kg / inhibition in vivo at 30 mg/kg: oral; for inhibition in vivo at 30 mg/kg: dose: 30 mg/kg of body weight. The method, then: Test for suppressing immediate and delayed allergic reaction
1×10^10 of inviable pertussis and 1 mg of dinitrophenylated ovalbumin (DNP-OA) were administered subcutaneously to the three paws except the right hind paw of male Wister rats having a body weight of 200 g. After 10 days, 5 μg of DNP-OA was further administered subcutaneously to the right hind paw of the animals to induce the allergic edema reaction at paw. The allergy suppressing effect of the test compounds was examined with reference to the edema volumes after 30 minutes and 8 hours of the induction of the allergic reaction as the immediate and delayed allergic reactions, respectively.
[…] On the other hand, only a solution of 0.25% Tween 80 was orally administered to rats as the untreated control, and 100 mg/kg of sodium chromoglycate subcutaneously or orally to rats as the positive control.
The rate of suppressing the allergic edema reaction at paw was calculated from the following equation.
Suppression rate of the allergic edema reaction at paw
A is an average edema volume in the control, and
B is an average edema volume in the drug treated group.

The conditions of experiment [3]: cited from earlier work.
Where [4] appears, read: 0.5 h, edema volume 30 minutes after induction, read-out: Suppressing Rate, Immediate Reaction.
The mark [5] stands for this setting: edema volume 8 hours after induction, read-out: Suppressing Rate, Slow reaction.
Where [6] appears, read: 0.5 h, 30 minutes after induction, read-out: Suppressing Rate, Immediate Reaction.
[7] abbreviates: 8 hours after induction, read-out: Suppressing Rate, Slow reaction.

As for `COC(=O)/C=C/c1ccc2c(=O)c3[nH]nnc3c(=O)[nH]c2c1` [Example 16, 7-(2-methoxycarbonyl-(E)-ethenyl)-4(5H),10-dioxo-1H-1,2,3-triazolo[4,5-c][l]benzazepine], the IC50 in experiment [1] stood at 2.6 nM. Moreover, the inhibition in vivo at 10 mg/kg was determined as 79% in experiment [2] (setting [4]) and 80% in experiment [2] (setting [5]).
For the compound `CCOc1ccc2c(=O)c3[nH]nnc3c(=O)[nH]c2c1` [Example 27, 7-ethoxy-4(5H),10-dioxo-1H-1,2,3-triazolo[4,5-c][l]benzazepine], in experiment [1], the IC50 came out at 8.6 nM. Besides, the inhibition in vivo at 10 mg/kg stood at 48% in experiment [2] (setting [4]) and 55% in experiment [2] (setting [5]).
For `O=c1[nH]c2cc(CNS(=O)(=O)c3ccccc3)ccc2c(=O)c2[nH]nnc12` [Example 69, 7-(N-benzenesulfonylaminomethyl)-4(5H),10-dioxo-1H-1,2,3-triazolo [4,5-c][l]benzazepine], in that order: 3.5 nM, 50% and 41%.
Regarding `Cc1cccc2c(=O)c3[nH]nnc3c(=O)[nH]c12` [Example 3, 6-methyl-4(5H),10-dioxo-1H-1,2,3-triazolo[4,5-c][l]benzazepine], the IC50 in experiment [1] was 37 nM. Further, the inhibition in vivo at 30 mg/kg in experiment [2] (setting [6]) was found to be 46.6%; in experiment [2] (setting [7]) it was 24.2%.
Consider `COc1ccc(C(=O)COc2ccc3[nH]c(=O)c4nn[nH]c4c(=O)c3c2)cc1` [Example 84, 8-(4-methoxyphenacyloxy)-4(5H),10-dioxo-1H-1,2,3-triazolo[4,5-c][l]benzazepine], for which, in experiment [1], the IC50 turned out to be 3.9 nM. Besides, the inhibition in vivo at 10 mg/kg in experiment [2] (setting [4]) turned out to be 48%; in experiment [2] (setting [5]), 40%.
With `O=C(O)c1cc(=O)c2c(OCC(O)COc3cccc4oc(C(=O)O)cc(=O)c34)cccc2o1` [DSCG, sodium chromoglycate, reference compound], the “effectiveness on oral administration” value in experiment [3] is on record as “no effectiveness”. The inhibition in vivo at 100 mg/kg in experiment [2] (po, 0.5 h, orally, 30 minutes after induction (positive control), read-out: Suppressing Rate, Immediate Reaction) is 16%; in experiment [2] (po, orally, 8 hours after induction (positive control), read-out: Suppressing Rate, Slow reaction), 20%; in experiment [2] (sc, 0.5 h, subcutaneously, 30 minutes after induction (positive control), read-out: Suppressing Rate, Immediate Reaction), 75%; in experiment [2] (sc, subcutaneously, 8 hours after induction (positive control), read-out: Suppressing Rate, Slow reaction), 53%.
As for `Cc1ccc2[nH]c(=O)c3nn[nH]c3c(=O)c2c1` [Example 5, 8-methyl-4(5H),10-dioxo-1H-1,2,3-triazolo[4,5-c][l]benzazepine], the IC50 in experiment [1] was found to be 13 nM. Further, the inhibition in vivo at 30 mg/kg in experiment [2] (setting [6]) came to 48.7%; in experiment [2] (setting [7]) it was 28.9%.

The term IC50 denotes the concentration needed to halve the response being measured.
